From ChEMBL document CHEMBL4725322, “New 30-norlupane derivatives through chemical-microbial semi-synthesis of betulinic acid and their neuroprotective effect” (Bioorg Med Chem Lett, 2020) come the findings set out here.

Assay [1] relates to PC-12. The experiment in a line: Neuroprotective activity against CoCl2-induced neuronal injury in rat PC-12 cells assessed as cell viability at 30 uM relative to control. The class given is functional. The note with it: read-out: Activity.
Assay [2] has as its system PC-12. Kind of assay: Neuroprotective activity against CoCl2-induced neuronal injury in rat PC-12 cells assessed as increase in cell viability. The class given is functional, cell-based.
Setting [3] is: Rattus norvegicus, PC-12, read-out: EC50.

What is called EC50 is the midpoint of the concentration-response curve.

As for `OC[C@H]1O[C@@H](OCCc2ccc(O)cc2)[C@H](O)[C@@H](O)[C@@H]1O` [SALIDROSIDE], the viability at 30 µM in the assay on PC-12 [1] worked out at 99.2%.

As for `CC(=O)[C@@H]1CC[C@]2(C(=O)O)CC[C@]3(C)[C@H](CC[C@@H]4[C@@]5(C)CCC(=O)C(C)(C)[C@@H]5C[C@H](O)[C@]43C)[C@@H]12`, the viability at 30 µM in the assay on PC-12 [1] turned out to be 96%. Besides, the EC50 result in the assay with PC-12 [2] (pc-12) is recorded as “Not Active”.

In the case of `CC(=O)[C@@H]1CC[C@]2(C(=O)O)CC[C@]3(C)[C@H](CC[C@@H]4[C@@]5(C)CC[C@H](O)C(C)(C)[C@@H]5CC[C@]43C)[C@@H]12` [PLATANIC ACID], the viability at 30 µM in the assay on PC-12 [1] is 96.8%. In addition, the EC50 in the assay on PC-12 [2] (setting [3]) was 0.17 µM.

With `CC(=O)[C@@H]1CC[C@]2(C(=O)O)CC[C@]3(C)[C@H](CC[C@@H]4[C@@]5(C)CC[C@H](O)C(C)(C)[C@@H]5C[C@H](O)[C@]43C)[C@@H]12`, the viability at 30 µM with PC-12 [1] came out at 105%. The EC50 entry in the assay on PC-12 [2] (pc-12) is given as “Not Active”.

For `CC(=O)[C@@H]1CC[C@]2(C(=O)O)CC[C@]3(C)[C@H](C[C@@H](O)[C@@H]4[C@@]5(C)CCC(=O)C(C)(C)[C@@H]5CC[C@]43C)[C@@H]12`, in the assay with PC-12 [1], the viability at 30 µM stood at 102%. Moreover, the EC50 in the assay on PC-12 [2] (setting [3]) was 0.01 µM.

With `CC(=O)[C@@H]1CC[C@]2(C(=O)O)CC[C@]3(C)[C@H](C[C@@H](O)[C@@H]4[C@@]5(C)CCC(=O)C(C)(C)[C@@H]5C[C@H](O)[C@]43C)[C@@H]12`, the viability at 30 µM with PC-12 [1] amounted to 105%. Also, in the assay with PC-12 [2] (pc-12), the concentration giving a half-maximal response (EC50) result is “Not Active”.

With `CC(=O)[C@@H]1CC[C@]2(C(=O)O)CC[C@]3(C)[C@H](CC[C@@H]4[C@@]5(C)CC[C@H](O)[C@@](C)(CO)[C@@H]5C[C@H](O)[C@]43C)[C@@H]12`, in the assay on PC-12 [1], the viability at 30 µM stood at 110%. Also, the EC50 entry in the assay with PC-12 [2] (pc-12) was “Not Active”.

`CC(=O)[C@@H]1CC[C@]2(C(=O)O)C[C@H](O)[C@]3(C)[C@H](CC[C@@H]4[C@@]5(C)CC[C@H](O)C(C)(C)[C@@H]5C[C@H](O)[C@]43C)[C@@H]12`: in the assay with PC-12 [1], the viability at 30 µM was found to be 99.4%. Moreover, the EC50 result in the assay with PC-12 [2] (pc-12) is “Not Active”.

Consider `CC(=O)[C@@H]1CC[C@]2(C(=O)O)C[C@H](O)[C@]3(C)[C@H](CC[C@@H]4[C@@]5(C)CCC(=O)C(C)(C)[C@@H]5C[C@H](O)[C@]43C)[C@@H]12`, for which the viability at 30 µM in the assay on PC-12 [1] worked out at 104%. In addition, in the assay on PC-12 [2] (pc-12), the concentration giving a half-maximal response (EC50) result was “Not Active”.
